Experimental data from US6974806B2, “Lipid-rich plaque inhibitors” (Takeda Pharmaceutical Company Limited, priority 2000, dated 2005).

Tests used:
[1] = test system: male apo-lipoprotein E deficient mouse; assay: Experiment 1: plaque regression, % lesion area of aorta (oil red O) in apoE deficient mouse; assay type: in vivo; conditions: arteriosclerotic diet 8 weeks, then 27 mg/kg/day mixed with normal diet, 9th to 12th week, control 31%, p<0.01
Text: [Method] […] Subsequently, each of only CE-2 powder, which is a normal diet, (control group, number of animals=8) and CE-2 powder supplemented with Compound A (number of animals=8) was given ad libitum during the period from the 9th week to the 12th week. Each animal was sacrificed by decapitation 12 weeks after initiation of the experiment, the vessel from the aortic arch to the femoral bifurcation was isolated and opened in the direction of the vascular axis, stained with oil red O (Sigma Aldrich Japan), photographed closely using a medical Nikkor (NIKON), and the photograph was scanned using a scanner (GT-6000, EPSON) and the image was processed using Adobe Photoshop. Thus, the image of the vessel was trimmed and the red color was extracted and modified into a two-tone gradation.
The two-tone image was subjected to an NIH image (National Institute of Health) to count pixels, whereby calculating the % lesion area based on the entire surface area of the internal wall of the vessel.

[2] = test system: male apo-lipoprotein E deficient mouse; assay: Experiment 2: plaque regression, % lesion area and aortic cholesteryl ester content in apoE KO mouse; assay type: in vivo; conditions: arteriosclerotic diet 8 weeks, then normal diet with 30 mg/kg/day oral for 4 weeks
Protocol: (§1) [Results] The lesion (plaque) area based on the vascular internal surface area was 31% in the group fed only the normal diet after 9th week. […] Experiment 2 [Method] […] Subsequently, from the 9th week to the 12th week, Compound B (0.5% methyl cellulose suspension: at 30 mg/kg/day) was administered orally, during the period only CE-2 powder, which is a normal diet, was given. The control group was maintained with only CE-2 diet. Each animal was sacrificed by decapitation 12 weeks after initiation of the experiment, the vessel from the aortic arch to the femoral bifurcation was isolated and opened in the direction of the vascular axis, stained with oil red O (Sigma Aldrich Japan), and subjected to an image analysis similarly to Experiment 1 to calculate the % lesion area based on the entire vascular internal wall area. The vessel specimen after the image analysis was homogenized in saline, and the amount of cholesteryl ester content in the aorta was measured in accordance with the method by Hara and Radin (Lipid Extract of tissues with a low-Toxicity solvent, Anal. Biochem., 90:420-426, 1978), that is, from the aorta stained with the oil red O was extracted the lipid by a glass homogenizer with hexane:isopropyl alcohol (3:2) and centrifuged. Subsequently, the supernatant was recovered and evaporated to dryness, and then dissolved in TESIT: dioxane (1:1). From this solution, its total cholesterol content (Cholesterol C test, WAKO) and the free cholesterol content (Free Cholesterol C test, WAKO) were examined. The data obtained were corrected for the wet weight of the aorta. The cholesteryl ester content (CE) was obtained by subtracting the free cholesterol content from the total cholesterol content. Since the sample, which was extracted with hexane:isopropyl alcohol and then evaporated to dryness, contained the oil red O which interferes with the absorption wavelength for the cholesterol measurement, the cholesterol content was calculated for each sample by subtracting the blank level (absorbance of oil red O in sample). [Results]

[3] = test system: male apo-lipoprotein E deficient mouse; assay: Experiment 3: plaque regression, % lesion area and aortic cholesteryl ester content in apoE KO mouse; assay type: in vivo; conditions: arteriosclerotic diet 8 weeks
Protocol: as §1
[Method] […] The control group was maintained with only CE-2 diet. Each animal was sacrificed by decapitation 12 weeks after initiation of the experiment, the vessel from the aortic arch to the femoral bifurcation was isolated and opened in the direction of the vascular axis, stained with oil red O (Sigma Aldrich Japan), and subjected to an image analysis similarly to Experiment 1 to calculate the % lesion area based on the entire vascular internal wall area. The vessel specimen after the image analysis was homogenized in saline, and the amount of cholesteryl ester content in the aorta was measured by an enzymatic method similarly to Experiment 2 described above. [Results]

Q: Which “lesion (plaque) area based on the vascular internal surface area” value [1] does the source give for COc1cccc(OC)c1NC(=O)Cc1c(-c2ccccc2C)c2cc(Cl)ccc2oc1=O [Compound A, 2-[6-chloro-2-oxo-4-(2-methylphenyl)-2H-chromen-3-yl]-N-(2,6-dimethoxyphenyl)acetamide] here?
A: 15%

Q: Which results are given for COc1cccc(OC)c1NC(=O)Nc1oc2cc3c(cc2c1-c1ccccc1C)CCC3 [Compound B, N-(2,6-dimethoxyphenyl)-N′-[3-(2-methylphenyl)-6,7-dihydro-5H-indeno[5,6-b]furan-2-yl]urea]?
A: aortic cholesteryl ester content ([2]; apoE KO mice, control 9.42): 4.76 µg/mg; % lesion area ([2]; apoE KO mice, control 22.6%): 16.9%; % lesion area ([2]; apoE KO mouse, n = 4): 16.9 ± 1.6%; aortic cholesteryl ester content ([2]; apoE KO mouse, n = 4, P < 0.05% (Dunnett's test)): 4.76 ± 0.46 µg/mg

Q: What does the source list for O=C(Cc1c(-c2ccccc2)c2cc3c(cc2oc1=O)CCC3)Nc1ccc(Cl)cc1C(F)(F)F [Compound C, N-(4-chloro-2-trifluoromethylphenyl)-2-(2-oxo-4-phenyl-2,6,7,8-tetrahydrocyclopenta[g]chromen-3-yl)acetamide]?
A: melting point: 198 to 200 °C; aortic cholesteryl ester content ([3]; apoE KO mice, then normal diet oral for 4 weeks (method: 10 mg/kg/day), control 6.83): 5.3 µg/mg; % lesion area ([3]; apoE KO mice, then normal diet oral for 4 weeks (method: 10 mg/kg/day), control 31.2%): 23.3%

Q: Which melting point does the source give for O=C(Cc1c(-c2ccccc2)c2cc(CO)c(Cl)cc2oc1=O)Nc1ccc(Cl)cc1C(F)(F)F [Example 85] here?
A: 241 to 243 °C

Q: With O=C(Cc1c(-c2ccccc2)c2cc(CO)ccc2oc1=O)Nc1ccc(Cl)cc1C(F)(F)F [Example 86] as the compound, how does the melting point read?
A: 226 to 227 °C

Q: With O=C(Cc1c(-c2ccccc2)c2cc(Cl)c(CO)cc2oc1=O)Nc1ccc(Cl)cc1C(F)(F)F [Example 87] as the compound, how does the melting point read?
A: 220 to 222 °C

Q: With O=C(Cc1c(-c2ccccc2)c2cc3c(cc2oc1=O)C(=O)CC3)Nc1ccc(F)cc1C(F)(F)F [Example 88, 2-(2,8-dioxo-4-phenyl-2,6,7,8-tetrahydrocyclopenta[g]chromen-3-yl)-N-[4-fluoro-2-(trifluoromethyl)phenyl]-acetamide] as the compound, how does the melting point read?
A: 180 to 183 °C

Q: For O=C(Cc1c(-c2ccccc2)c2cc3c(cc2oc1=O)C(=O)CC3)Nc1ccc(Cl)cc1C(F)(F)F [Example 89], which melting point is on record?
A: 189 to 192 °C

Q: Which melting point does the source give for COc1cccc(OC)c1NC(=O)Nc1oc2cc3c(cc2c1-c1ccccc1C)CCC3 [Example 102, N-(2,6-Dimethoxyphenyl)-N′-[3-(2-methylphenyl)-6,7-dihydro-5H-indeno[5,6-b]furan-2-yl]urea] here?
A: 208 °C (dec.)

Q: For Cc1cc2oc(=O)c(CC(=O)Nc3ccc(F)cc3C(F)(F)F)c(-c3ccccc3)c2cc1Br [Example 177, 2-(6-bromo-7-methyl-2-oxo-4-phenyl-2H-chromen-3-yl)-N-[4-fluoro-2-(trifluoromethyl)phenyl]acetamide], which melting point is on record?
A: 237 to 238 °C

Q: With COc1cc2c(-c3ccccc3)c(CC(=O)Nc3ccc(Cl)cc3C(F)(F)F)c(=O)oc2cc1Cl [Example 178, 2-(7-chloro-6-methoxy-2-oxo-4-phenyl-2H-chromen-3-yl)-N-[4-chloro-2-(trifluoromethyl)phenyl]acetamide] as the compound, how does the melting point read?
A: 246 to 247 °C

Q: With CNCc1cc2c(-c3ccccc3)c(CC(=O)Nc3ccc(Cl)cc3C(F)(F)F)c(=O)oc2cc1Cl [Example 180, 2-[6-[(methylamino)methyl]-7-chloro-2-oxo-4-phenyl-2H-chromen-3-yl]-N-[4-chloro-2-(trifluoromethyl)phenyl]acetamide] as the compound, how does the melting point read?
A: 205 to 207 °C

Q: Which melting point does the source give for CCN(CC)Cc1cc2c(-c3ccccc3)c(CC(=O)Nc3ccc(Cl)cc3C(F)(F)F)c(=O)oc2cc1Cl [Example 182] here?
A: 163 to 164 °C

Q: With O=C(Cc1c(-c2ccccc2)c2cc(CN3CCN(c4ncccn4)CC3)c(Cl)cc2oc1=O)Nc1ccc(Cl)cc1C(F)(F)F [Example 272] as the compound, how does the melting point read?
A: 214 to 217 °C

Q: For O=C(Cc1c(-c2ccccc2)c2cc(CN3CCN(c4ncccn4)CC3)c(Cl)cc2oc1=O)Nc1ccc(F)cc1C(F)(F)F [Example 273], which melting point is on record?
A: 203 to 205 °C

Q: For Cc1cc2c(-c3cccnc3)c(CC(=O)Nc3ccc(Cl)cc3C(F)(F)F)c(=O)oc2cc1Cl [Example 329], which melting point is on record?
A: 212 to 215 °C

Q: With Cc1cc2c(-c3cccnc3)c(CC(=O)Nc3ccc(F)cc3C(F)(F)F)c(=O)oc2cc1Cl [Example 330] as the compound, how does the melting point read?
A: 213 to 215 °C

Q: For CCOC(=O)C=Cc1cccc(-c2c(CC(=O)Nc3ccc(Cl)cc3C(F)(F)F)c(=O)oc3cc(Cl)c(C)cc23)c1 [Example 336], which melting point is on record?
A: 118 °C (dec.)

Q: For CCOC(=O)C=Cc1cccc(-c2c(CC(=O)Nc3ccc(F)cc3C(F)(F)F)c(=O)oc3cc(Cl)c(C)cc23)c1 [Example 337], which melting point is on record?
A: 193 to 196 °C

Q: With “N-(2,6-dimethoxyphenyl)-N′-[3-(2-methylphenyl)-6,7-dihydro-5H-indeno[5,6-b]furan-2-yl]urea [Compound B]” as the compound, how does the “aortic cholesteryl ester content” value ([3]; apoE KO mouse, then normal diet with 10 mg/kg/day oral (b869 says) for 4 weeks, n = 10) read?
A: 5.30 ± 0.37 µg/mg

Q: And the “% lesion area” value ([3]; apoE KO mouse, then normal diet with 10 mg/kg/day oral (b869 says) for 4 weeks, n = 10, P < 0.05% (Dunnett's test))?
A: 23.3 ± 1.8 %
